Consider 20 compounds from PMC4941420, “A Rational Approach for the Identification of Non-Hydroxamate HDAC6-Selective Inhibitors” (Scientific Reports, 2016).

The term inhibition denotes the change of the read-out against control, counted positive when it falls. The term IC50 denotes the point on the concentration scale where inhibition reaches its midpoint. A high value points to weaker potency.

Data set [1] has as its target T1, HDAC6 (Homo sapiens, UniProt Q9UBN7).
T1 construct: purchased Sigma Aldrich or Reaction Biology Corporation
T1 sequence (Q9UBN7 1-1215): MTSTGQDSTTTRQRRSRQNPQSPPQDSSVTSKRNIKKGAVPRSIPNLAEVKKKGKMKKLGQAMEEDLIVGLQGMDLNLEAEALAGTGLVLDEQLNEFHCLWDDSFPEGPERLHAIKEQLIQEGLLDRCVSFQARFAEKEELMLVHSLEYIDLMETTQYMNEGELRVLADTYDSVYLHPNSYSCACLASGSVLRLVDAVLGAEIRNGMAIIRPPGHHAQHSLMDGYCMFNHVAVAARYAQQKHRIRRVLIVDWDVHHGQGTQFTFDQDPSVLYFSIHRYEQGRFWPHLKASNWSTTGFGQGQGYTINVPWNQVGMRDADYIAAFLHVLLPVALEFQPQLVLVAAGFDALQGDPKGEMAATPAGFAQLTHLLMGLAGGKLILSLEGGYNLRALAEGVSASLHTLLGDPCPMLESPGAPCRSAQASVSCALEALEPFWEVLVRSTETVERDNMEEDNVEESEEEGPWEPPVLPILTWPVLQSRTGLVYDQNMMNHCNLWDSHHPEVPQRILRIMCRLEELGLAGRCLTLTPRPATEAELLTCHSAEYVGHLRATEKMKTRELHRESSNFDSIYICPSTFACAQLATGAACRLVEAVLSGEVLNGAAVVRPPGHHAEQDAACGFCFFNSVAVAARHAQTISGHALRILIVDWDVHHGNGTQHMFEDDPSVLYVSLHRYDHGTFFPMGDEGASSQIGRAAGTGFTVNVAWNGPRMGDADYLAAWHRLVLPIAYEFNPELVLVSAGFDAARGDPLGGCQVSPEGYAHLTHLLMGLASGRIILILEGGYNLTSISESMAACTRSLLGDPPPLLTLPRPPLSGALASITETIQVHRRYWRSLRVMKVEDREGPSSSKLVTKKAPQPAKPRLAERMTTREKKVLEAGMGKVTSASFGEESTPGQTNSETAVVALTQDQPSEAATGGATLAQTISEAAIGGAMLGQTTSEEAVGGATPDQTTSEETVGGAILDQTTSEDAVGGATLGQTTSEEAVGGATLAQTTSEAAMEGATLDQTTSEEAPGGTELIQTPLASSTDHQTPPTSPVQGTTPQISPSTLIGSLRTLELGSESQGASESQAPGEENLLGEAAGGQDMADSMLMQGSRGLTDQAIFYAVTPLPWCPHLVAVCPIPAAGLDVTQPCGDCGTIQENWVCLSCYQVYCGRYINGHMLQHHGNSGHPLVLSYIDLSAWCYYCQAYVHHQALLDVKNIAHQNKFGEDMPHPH
As to the kind of experiment: In vitro enzymatic assay HDAC6 (Fluor de Lys). Conditions: for HDAC6 % of inhibition at 100 µM / inhibition at 100 µM: mean ± SD (n=3); for inhibition at 100 µM: read-out: HDAC6 % of inhibition at 100 µM; for IC50: average of at least 2 independent experiments in duplicates ± SEM; for selectivity index (SI) with respect to HDAC2: HDAC6 versus HDAC2. It is filed as biochemical.

Data set [2] deals with HDAC6. The data set is described as follows: HDAC ChEMBL dataset / literature, enzymatic IC50 HDAC6. The class given is biochemical. Particulars: ratio of ChEMBL IC50 values.
Data set [3] has as its system class I HDACs (HeLa nuclear extracts). As to the kind of experiment: HDAC activity of HeLa nuclear extracts (Fluor de Lys). It is filed as biochemical, human. Conditions: 100 μM, average of at least 3 independent experiments in duplicates (Table 1).
The target in data set [4] is T2, HDAC2 (Homo sapiens, UniProt Q92769).
T2 construct: purchased Sigma Aldrich or Reaction Biology Corporation
T2 sequence (Q92769 whole entry): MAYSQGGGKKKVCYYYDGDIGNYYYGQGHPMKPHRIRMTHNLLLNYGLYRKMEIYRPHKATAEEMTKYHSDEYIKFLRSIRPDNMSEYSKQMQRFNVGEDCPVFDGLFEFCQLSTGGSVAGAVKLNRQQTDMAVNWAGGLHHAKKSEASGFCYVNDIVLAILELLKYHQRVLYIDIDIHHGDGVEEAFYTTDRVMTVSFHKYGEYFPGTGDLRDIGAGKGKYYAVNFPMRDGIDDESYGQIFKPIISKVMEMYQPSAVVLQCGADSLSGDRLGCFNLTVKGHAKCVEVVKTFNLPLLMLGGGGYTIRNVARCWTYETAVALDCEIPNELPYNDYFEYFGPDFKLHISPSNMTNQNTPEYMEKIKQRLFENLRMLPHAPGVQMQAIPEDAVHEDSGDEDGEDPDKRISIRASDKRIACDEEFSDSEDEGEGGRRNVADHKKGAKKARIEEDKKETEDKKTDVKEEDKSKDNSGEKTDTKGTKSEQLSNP
The data set is described as follows: In vitro enzymatic assay HDAC2 (Fluor de Lys). Conditions: average of at least 2 independent experiments in duplicates ± SEM. It is filed as biochemical.

The target in data set [5] is T3, HDAC8 (Homo sapiens, UniProt Q9BY41).
T3 construct: purchased Sigma Aldrich or Reaction Biology Corporation
T3 sequence (Q9BY41 1-377): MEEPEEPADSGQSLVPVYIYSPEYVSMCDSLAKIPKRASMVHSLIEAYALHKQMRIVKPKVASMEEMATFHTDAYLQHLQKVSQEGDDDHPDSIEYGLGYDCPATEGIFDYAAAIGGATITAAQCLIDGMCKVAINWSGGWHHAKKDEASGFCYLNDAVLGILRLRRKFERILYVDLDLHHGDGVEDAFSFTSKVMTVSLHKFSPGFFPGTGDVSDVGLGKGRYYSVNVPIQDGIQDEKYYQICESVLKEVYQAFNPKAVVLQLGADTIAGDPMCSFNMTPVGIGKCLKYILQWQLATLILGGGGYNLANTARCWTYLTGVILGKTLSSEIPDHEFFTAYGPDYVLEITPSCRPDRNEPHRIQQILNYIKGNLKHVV
As to the kind of experiment: In vitro enzymatic assay HDAC8 (Fluor de Lys). It is filed as biochemical. Conditions: average of at least 2 independent experiments in duplicates ± SEM.

Data set [6] has as its target T4, HDAC4 (Homo sapiens, UniProt P56524).
T4 construct: purchased Sigma Aldrich or Reaction Biology Corporation
As to the kind of experiment: In vitro enzymatic assay HDAC4 (Fluor de Lys). The class given is biochemical. Particulars: average of at least 2 independent experiments in duplicates ± SEM.

The nature of data set [7]: Solubility remarks during testing. It is filed as physicochemical. Conditions: tested at 100 µM in HDAC assay buffer.

T4 sequence (P56524 whole entry): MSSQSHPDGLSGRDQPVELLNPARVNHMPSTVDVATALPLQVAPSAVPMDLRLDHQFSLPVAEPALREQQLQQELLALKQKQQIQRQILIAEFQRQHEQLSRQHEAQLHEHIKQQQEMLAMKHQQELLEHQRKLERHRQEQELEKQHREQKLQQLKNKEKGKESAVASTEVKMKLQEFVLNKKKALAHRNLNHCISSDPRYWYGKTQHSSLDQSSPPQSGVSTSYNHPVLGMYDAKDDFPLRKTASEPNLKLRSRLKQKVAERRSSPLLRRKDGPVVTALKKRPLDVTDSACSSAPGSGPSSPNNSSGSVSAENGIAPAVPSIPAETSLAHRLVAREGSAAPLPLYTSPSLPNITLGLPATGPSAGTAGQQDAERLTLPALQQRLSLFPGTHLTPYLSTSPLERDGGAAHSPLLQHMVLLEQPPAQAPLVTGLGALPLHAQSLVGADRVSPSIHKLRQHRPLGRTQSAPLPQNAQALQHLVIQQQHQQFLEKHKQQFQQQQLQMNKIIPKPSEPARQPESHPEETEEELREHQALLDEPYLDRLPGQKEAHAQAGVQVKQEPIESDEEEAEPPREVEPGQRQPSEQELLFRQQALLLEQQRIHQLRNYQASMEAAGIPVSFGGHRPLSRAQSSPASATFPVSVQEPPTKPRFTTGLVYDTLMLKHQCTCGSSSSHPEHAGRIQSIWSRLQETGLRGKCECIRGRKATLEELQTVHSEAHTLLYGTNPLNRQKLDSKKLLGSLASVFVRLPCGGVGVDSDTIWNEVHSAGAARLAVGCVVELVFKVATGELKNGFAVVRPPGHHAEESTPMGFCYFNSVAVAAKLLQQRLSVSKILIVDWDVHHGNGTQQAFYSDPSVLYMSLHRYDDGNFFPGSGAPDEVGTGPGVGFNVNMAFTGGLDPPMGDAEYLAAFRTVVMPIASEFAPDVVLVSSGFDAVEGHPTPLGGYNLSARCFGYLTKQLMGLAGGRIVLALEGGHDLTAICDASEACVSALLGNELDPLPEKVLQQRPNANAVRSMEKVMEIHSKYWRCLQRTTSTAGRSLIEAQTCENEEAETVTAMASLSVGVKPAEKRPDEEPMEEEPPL

Regarding `CCOc1ccc(OCc2ccc(C(=O)NN)o2)cc1` [AK-16], the “HDAC6 % of inhibition at 100 µM” value in data set [1] stood at 36.9 ± 11.3%.
As to `NNC(=O)CC12CC3CC(C1)CC(n1ncnn1)(C3)C2` [AK-13], in data set [1], the “HDAC6 % of inhibition at 100 µM” value came out at 23.7 ± 9.3%.
The same measure, in the same setting: for `Cc1nnn(C23CC4CC(CC(C(=O)NN)(C4)C2)C3)n1` [AK-19] the value was 18.1 ± 4.0%; for `CC(C)(C)C1CCC(C(=O)NN)CC1` (stereo not shown) [AK-23], 20.2 ± 10.9%.
Same read-out and setting: for `C=CCn1c(SCC(=O)Nc2ccc(S(N)(=O)=O)cc2)nnc1-c1sc(N)nc1C` [AS-1] the value was -1.8 ± 11.1%.
As to `Cn1cccc1C(=O)N1Cc2ccc(C(=O)NO)cc2C1` [CHEMBL2431906], in data set [2], the “Isoform selectivity (ratio) HDAC2/HDAC6” value stood at 169.2 and the “Isoform selectivity (ratio) HDAC4/HDAC6” value is 84.6.
`Cc1nn(Cc2ccc(C(=O)NN)cc2)c(C)c1Cl` [AK-2]: the “HeLa % of inhibition at 100 μM” value in data set [3] is on record as 10.0 ± 2.0%. Moreover, in data set [1], the inhibition at 100 µM came to 58 ± 1.5%. Besides, the IC50 was 47.9 ± 4.7 µM in data set [1], more than 200 µM in data set [4], 140 ± 11.5 µM in data set [5] and more than 300 µM in data set [6].
Consider `C=CCn1c2ccccc2c2nnc(SC(CC)C(=O)Nc3ccc(S(N)(=O)=O)cc3)nc21` (stereo not shown) [AG-3], for which the “HDAC6 % of inhibition at 100 µM” value in data set [1] came to 16.3 ± 0. %.
`Cn1cccc1C(=O)N1CCc2cc(C(=O)NO)ccc2C1` [CHEMBL2431901]: in data set [2], the “Isoform selectivity (ratio) HDAC2/HDAC6” value is listed as 1388.9, the “Isoform selectivity (ratio) HDAC4/HDAC6” value was 1388.9 and the “Isoform selectivity (ratio) HDAC8/HDAC6” value stood at 58.33.
As to `NNC(=O)c1cc2nc(-c3cccs3)cc(C(F)(F)F)n2n1` [AK-7], the “HDAC6 % of inhibition at 100 µM” value in data set [1] is listed as 31.1 ± 0.5% Self-fluorescence.
As for `COc1cc(/C=N/NC(N)=S)ccc1OCC(=O)Nc1ccc(C)c(C)c1` [AN-3], in data set [1], the “HDAC6 % of inhibition at 100 µM” value is -4.0 ± 3.9% Self-fluorescence.
With `N/N=C1\CCCc2c1[nH]c1ccc(C(=O)NN)cc21` [AH-1], the “HDAC6 % of inhibition at 100 µM” value in data set [1] is on record as 26.9 ± 6.1%.
As for `O=C(NO)c1ccc(C(=O)NCCc2ccccc2)cc1` [CHEMBL2333340], in data set [2], the “Isoform selectivity (ratio) HDAC2/HDAC6” value is on record as 151.75, the “Isoform selectivity (ratio) HDAC4/HDAC6” value was 8332.5 and the “Isoform selectivity (ratio) HDAC8/HDAC6” value is reported as 287.5.
With `CC(C)(C)CC(C)(C)c1ccc(OCC(=O)NN)c([N+](=O)[O-])c1` [AG-4], the “HDAC6 % of inhibition at 100 µM” value in data set [1] is 5.5 ± 2.9%.
For the compound `CC1(C)Cc2ccccc2C2=C/C(=N/O)C(=O)N21` [AG-1], the “HeLa % of inhibition at 100 μM” value in data set [3] was 38.2 ± 1.1%. Also, in data set [1], the inhibition at 100 µM worked out at 83.8 ± 2.3%. Further, the “selectivity index (SI) with respect to HDAC2” value in data set [1] is more than 50. For the same compound, the IC50 is 21.7 ± 1.2 µM in data set [1], more than 1000 µM in data set [4], 0.3 ± 0.005 µM in data set [5] and 111 ± 3.5 µM in data set [6].
`COc1cc(/C=N/NC(N)=S)ccc1OCC(=O)Nc1ccc(Br)c(Cl)c1` [AN-2]: the “HDAC6 % of inhibition at 100 µM” value in data set [1] was 4.9 ± 8.2% Self-fluorescence.
The same measure, in the same setting: for `CC(C)c1ccc(OCc2cccc(C(=O)NN)c2)cc1` [AK-1] the value was 18.3 ± 0.1%.
`O=C(CSc1nc2cc(Cl)c3cccnc3c2o1)c1ccc(O)c(O)c1` [AO-1]: the “HeLa % of inhibition at 100 μM” value in data set [3] stood at 20.7 ± 4.0%. The inhibition at 100 µM in data set [1] came out at 66.1 ± 6.9%. Moreover, in data set [1], the “selectivity index (SI) with respect to HDAC2” value is given as more than 50. Besides, the IC50 in data set [1] was 16.9 ± 4.9 µM; in data set [4], more than 1000 µM; in data set [5] it was 35.1 ± 1.1 µM; in data set [6], 73.5 ± 6 µM.
Consider `CC1(C)Cc2c(c(N3CCOCC3)nc3sc(C(=O)NN)cc23)CO1` [AK-8], for which the “HDAC6 % of inhibition at 100 µM” value in data set [1] is given as 32.5 ± 8.8%. Further, the “solubility remark in HDAC6 screening” value in data set [7] is on record as “Solubility issues”.
As for `Cc1cccc(Cn2nnc3c(=O)n(CC(=O)Nc4ccc(S(N)(=O)=O)cc4)cnc32)c1` [AO-2], the “HDAC6 % of inhibition at 100 µM” value in data set [1] is recorded as -3.3 ± 5.4%.
